Data: US11512083B2, “Compounds and methods for the enhanced degradation of targeted proteins” (Arvinas Operations, Inc., priority 2015, dated 2022)

Key:
BRD4 = BRD4 (Homo sapiens (Human), UniProt O60885); assay: BRD4 c-myc ELISA assay in 22RV-1 cells; format: cell-based; conditions: 18 hrs, 300 nM-0.3 nM
Protocol: 22RV-1 cells were seeded at 30,000 cells/well at a volume of 75 μL/well in RPMI+10% FBS media in 96-well plates and grown overnight at 37 C. Cells were dosed with compounds at 4× concentration diluted in 0.4% DMSO; compounds were serially diluted 1:3 for 8-point dose curve. 25 ul of compound was added to cells for a final concentration starting at 300 nM-0.3 nM in 0.1% DMSO and incubated for 18 hrs. Media was aspirated, cells washed 1× with PBS and aspirated. Cells were lysed in 50 ul RIPA buffer (50 mM Tris pH8, 150 mM NaCl, 1% Tx-100, 0.1% SDS, 0.5% sodium deoxycholate) supplemented with protease and phosphatase inhibitors. Plates were incubated on ice for 15 minutes then centrifuged at 4° C. for 10 min at 4000 rpm. Added 50 ul of cleared lysate from 96-well assay plate into 96-well c-myc ELISA plate (Novex, Life Technologies Catalog #KH02041). […] The rest of the assay was performed following the protocol from the c-myc ELISA kit. Data was analyzed and plotted using GraphPad Prism software.

Androgen Receptor = assay: Androgen receptor ELISA assay (AR degradation) in LNCaP and/or VCaP cells; format: cell-based; conditions: AR PROTACs; 24 h incubation
Protocol: Compounds have been evaluated in this assay in LNCaP and/or VCaP cells utilizing similar protocols. The protocols used with VCaP cells are described below. The androgen receptor ELISA assay was performed using PathScan AR ELISA (Cell Signaling Catalog #128501 according to the following assay steps:
VCaP cells are seeded at 30,000 cells/well at a volume of 200 μL/well in VCaP assay medium [Phenol red free RPMI (Gibco Cat #11835-030); 5% Charcoal Stripped (Dextran treated) FBS (Omega Scientific, Cat #FB-04); Pen/Strep Life Technologies (Gibco Cat #: 10378-016); 0. 1 nM R1881 (Sigma, Cat #R0908) is added upon the start of the assay, not during initial plating of the cells) in Corning 3904 plates. The cells are grown for a minimum of 3 days.
(2)(i) Make 10× stock plate in media; (ii) transfer 2.5 μL of the 1000× stock to a new 10× stock plate (use 12 channel pipet, start at A (DMSO control) work thru H. When 247.5 μL of media is added to this plate, it will serve as a 10× stock; (iii) make media+1 nM R1881 for making 10× stock plate; (iv) add 247.5 μL of media with 1 nM R1881 to each well of the 10× stock plate, mix.
Then 22 μL of 10× stock is added to cells and incubated for 24 h. 1× Cell Signaling Cell lysis buffer is made (Catalogue #9803; comes with the kit)—prepare for 50 μL/well. Keep on ice. Media is aspirated, and 50 μL 1× cell lysis buffer/well is added. The cells are placed on ice for 10 minutes. The solution is mixed and transferred to PCR plate, and centrifuged at 4 C for 10 minutes at 4000 rpm. […]
Add 100 μL/well AR Elisa; cover and shake, 37 C for 2 hrs; dump, tap, wash 4× 200 μL ELISA wash buffer; add 100 μL/well mouse AR detection Ab; cover and shake, 37 C for 1 hr; dump, tap, wash 4× 200 μL ELISA wash buffer; add 100 μL/well anti-mouse—HRP conjugated Ab (comes with the kit); cover and shake, 37 C for 30 min; allow TMB reagent to come to RT; dump, tap, wash 4× 200 μL Elisa wash buffer; tap; add 100 μL TMB, shake 5 min—while watching color. […] Add 100 μL Stop solution; shake and read at 450 nm. […]

VHL = VHL (Homo sapiens (Human), UniProt P40337); assay: VHL fluorescence polarization (FP) competition assay; format: binding

cMyc Imax (BRD4) | IC50 (VHL; 1% in DMSO) [µM] | SMILES | also measured
++++ (71%≤Imax) |  | Cc1ncsc1-c1ccc(CNC(=O)[C@@H]2C[C@@H](O)CN2C(=O)[C@H](C(C)C)n2cc(-c3cccc(O[C@H](C)CNC(=O)C[C@@H]4N=C(c5ccc(Cl)cc5)c5c(sc(C)c5C)-n5c(C)nnc54)c3)cn2)cc1 | 
 |  | Cc1ncsc1-c1ccc([C@H](C)NC(=O)[C@@H]2C[C@@H](O)CN2C(=O)[C@H](C(C)C)n2cc(-c3ccnc(N4CC[C@@H](Nc5ccc(C(=O)N[C@H]6C(C)(C)[C@H](Oc7ccc(C#N)c(Cl)c7)C6(C)C)cc5)C4)c3)cn2)cc1 | Dmax (highest percentage of Androgen Receptor degradation observed) (Androgen Receptor): ++ (26%≤Dmax≤50%)
++++ (71%≤Imax) |  | Cc1ncsc1-c1ccc([C@H](C)NC(=O)[C@@H]2C[C@@H](O)CN2C(=O)[C@H](C(C)C)n2cc(-c3ccnc(O[C@H]4C[C@H](NC(=O)C[C@@H]5N=C(c6ccc(Cl)cc6)c6c(sc(C)c6C)-n6c(C)nnc65)C4)c3)cn2)cc1 | 
 | 19.3 | Cc1ncsc1-c1ccc(CNC(=O)C2(C)C[C@@H](O)CN2C(=O)[C@H](C(C)C)N2Cc3ccccc3C2=O)cc1 (single isomer, unassigned) [Example 129] | 
++++ (71%≤Imax) |  | Cc1ncsc1-c1ccc([C@H](C)NC(=O)[C@@H]2C[C@@H](O)CN2C(=O)[C@@H](n2cc(-c3ccnc(O[C@H]4C[C@@H](NC(=O)C[C@@H]5N=C(c6ccc(Cl)cc6)c6c(sc(C)c6C)-n6c(C)nnc65)C4)c3)cn2)C(C)(C)C)cc1 | 
 | > 100 | Cc1ncsc1-c1ccc(CNC(=O)C2(C)C[C@@H](O)CN2C(=O)[C@H](C(C)C)N2Cc3ccccc3C2=O)cc1 (single isomer, unassigned) [Example 128] | 
 |  | Cc1ncsc1-c1ccc(CNC(=O)[C@@H]2C[C@@H](O)CN2C(=O)C(C(C)C)n2cc(OC3CCN(c4ccc(-c5ccc(N6C(=S)N(c7ccc(C#N)c(C(F)(F)F)c7)C(=O)C6(C)C)cc5)cn4)CC3)cn2)cc1 (stereo partly shown) | Dmax (highest percentage of Androgen Receptor degradation observed) (Androgen Receptor): ++ (26%≤Dmax≤50%)
 | 2.02 | Cc1ncsc1-c1ccc(CNC(=O)[C@@H]2C[C@@H](O)CN2C(=O)[C@@H](NC(=O)c2ccccc2C#N)C(C)(C)C)cc1 [Example 70, (2S,4R)-1-((S)-2-(2-cyanobenzamido)-3,3-dimethylbutanoyl)-4-hydroxy-N-(4-(4-methylthiazol-5-yl)benzyl)pyrrolidine-2-carboxamide] | IC50 (VHL; 10% in DMSO): 1.2 µM
++++ (71%≤Imax) |  | Cc1ncsc1-c1ccc([C@H](C)NC(=O)[C@@H]2C[C@@H](O)CN2C(=O)[C@H](C(C)C)n2cc(-c3ccnc(N4CC[C@H](NC(=O)C[C@@H]5N=C(c6ccc(Cl)cc6)c6c(sc(C)c6C)-n6c(C)nnc65)C4)c3)cn2)cc1 | 
 | 21.6 | Cc1ncsc1-c1ccc(CNC(=S)[C@@H]2C[C@@H](O)CN2C(=O)[C@H](C(C)C)N2Cc3ccccc3C2=O)cc1 [Example 110, (2S,4R)-4-hydroxy-1-((S)-3-methyl-2-(1-oxoisoindolin-2-yl)butanoyl)-N-(4-(4-methylthiazol-5-yl)benzyl)pyrrolidine-2-carbothioamide] | 
 | 13.7 | Cc1ncsc1-c1ccc(CNC(=O)[C@@H]2C[C@@H](O)CN2C(=O)[C@@H](NC(=O)C2CCN(C)CC2)C(C)(C)C)cc1 [Example 75, N—((S)-1-((2S,4R)-4-hydroxy-2-(4-(4-methylthiazol-5-yl)benzylcarbamoyl)pyrrolidin-1-yl)-3,3-dimethyl-1-oxobutan-2-yl)-1-methylpiperidine-4-carboxamide] | IC50 (VHL; 10% in DMSO): 9.29 µM
 |  | Cc1ncsc1-c1ccc([C@H](C)NC(=O)[C@@H]2C[C@@H](O)CN2C(=O)[C@H](C(C)C)n2cc(OCCCOCCC(O)CCOc3ccc(N4C(=S)N(c5ccc(C#N)c(C(F)(F)F)c5)C(=O)C4(C)C)cc3)cn2)cc1 (stereo partly shown) | Dmax (highest percentage of Androgen Receptor degradation observed) (Androgen Receptor): +++ (51%≤Dmax≤70%)
 | 6.25 | CSC[C@H](NC(=O)CCC(C)C)C(=O)N1C[C@H](O)C[C@H]1C(=O)NCc1ccc(-c2scnc2C)cc1 [Example 22, (2S,4R)-4-hydroxy-1-((R)-2-(4-methylpentanamido)-3-(methylthio)propanoyl)-N-(4-(4-methylthiazol-5-yl)benzyl)pyrrolidine-2-carboxamide] | IC50 (VHL; 10% in DMSO): 8.29 µM
